Tests used:
[1] = test system: HIV; assay: Luciferase-based single cycle infectivity assay in LuSIV cells; type: cell-based, HIV-1; settings: LuSIV cells treated with 20 mM; all viral input levels
Experimental: (§1) The effect of 2-OH-βCD on infectivity of HIV was measured in a Luciferase-based single cycle infection assay as previously described (Liao et al., supra, 2000). LuSIV cells were treated with 20 mM 2-OH-βCD in iRPMI or iRPMI alone for 1 hr at 37° C. Cells were then washed with iRPMI before being resuspended in cRPMI at a density of 2×10^6/ml. Cells in 100 Tl were mixed with cRPMI or with dilutions of virus supernatant (62 to 500 pg/ml of p24) from 2-OH-βCD-treated or untreated PM1 cells and allowed to incubate overnight (16 hr) at 37° C. The LuSIV cells were washed with PBS and lysed with 100 Tl of Reporter Lysis Buffer (Promega). After centrifugation at 13,000×g for 30 seconds, 10, μl of lysate were added to 100 μl Luciferase Reagent (Promega) in an opaque 96 well plate and luminescence was measured on a Packard Lumicount luminometer (Downers Grove, Ill.).
The effects of βCD treatment on HIV infectivity were measured in a sensitive single-cycle infection assay based on a cell line transfected with an LTR-luciferase cassette. […] Quantitative measurements of single round infection are obtained with this assay system (Roos et al., Virology 273:307-315, 2000, which is incorporated herein by reference). […]

[2] = test system: HIV-1RF; assay: Free virus binding assay (transfer of class II MHC to Jurkat cells); type: cell-based
Experimental: Virus binding was measured through host cell antigen transfer as described (Liao et al., supra, 2000). Briefly, Jurkat cells (1×10^6) were washed with serum free RPMI-1640 medium (iRPMI) before incubation in 20 mM 2-OH-βCD in iRPMI or iRPMI alone for 1 hr at 37° C. Cells were then washed twice with iRPMI before adding 100 Tl of clarified HIV-1 supernatant (>10 ng/ml of p24 from PM1 cells) for 1 hr on ice. Excess virus was removed by washing twice with iRPMI. MAbs were then added at 20 ug/ml in 5% NGS/PBS and allowed to incubate for 1 h on ice before washing with iRPMI. FITC-GAM (10 ug/ml) was then added for 45 min on ice before washing with iRPMI. Cells were then fixed with 2% paraformaldehyde followed by analysis on an EPICS Profile II flow cytometer.
The possibility that βCD treatment affected virus binding or interactions between gp120 and CD4 or CRs was examined. In order to measure virus binding to cells, a flow cytometry assay was used that measures the transfer of host cell class II MHC proteins to class II MHC-negative cells by HIV virions, which incorporate large numbers of these proteins into their lipid envelopes. […] Class II MHC-negative Jurkat cells were used as target cells in the HIV binding assay. As a positive control for flow cytometry analysis, class I MHC molecules were probed on the Jurkat cells, which were stained equally well with MAb against this protein before and after 2-OH-βCD treatment (Table 3). When HIV-1RF from class II MHC-positive PM1 cells was added to untreated Jurkat cells, class II MHC MAb mean channel fluorescence increased from 1.0 to 7.8 relative fluorescence units, while the percentage of positive cells increased from 3.0% to 55.4% (Table 3). 2-OH-βCD treatment of the cells reduced virus binding by 70%, as determined by mean channel fluorescence of the anti-class II MHC mAb.
HIV binding to Jurkat cells (control and 2-OH-βCD-treated) was measured by transfer of class II MHC molecules. MAbs used were MHM.5 (anti-class I MHC), positive control; MHM.33 (anti-class II MHC). “MCF” indicates mean channel fluorescence. “% Pos” indicates percent positive cells. “ND” indicates not determined.

[3] = test system: HIV-1; assay: Virus production and infectivity of virions from cholesterol-depleted cells; type: cell-based
Experimental: PM1 cells chronically infected with HIV-1RF were washed and treated with 20 mM 2-OH-βCD in cRPMI or with cRPMI alone for 1 hr at 37° C. The cells were then washed twice before resuspension at a density of 5×10^6/ml in cRPMI. The cells were incubated for 6 hrs at 37° C., 5% CO2 and pelleted by centrifugation. Supernatants, which contained the virus, were collected and purified by centrifugation through a 20% sucrose cushion (Liao et al., supra, 2000). The virus pellets were taken up in cRPMI and titrated against LuSIV cells to determine infectivity. P24 was measured in a standard p24 ELISA.
as §1, with “The LuSIV cells were washed with PBS and lysed with 100 Tl of Reporter Lysis Buffer (Promega).” left out

[4] = test system: HIV-1RF chronically infected Jurkat cells; assay: Virus precipitation with MAbs after β-cyclodextrin treatment of infected cells; type: cell-based
Experimental: Infected Jurkat cells (3×10^6) were treated with 20 mM hydroxypropyl-β-cyclodextrin (2-OH-βCD; Cyclodextrin Technologies Development, Inc.; Gainesville Fla.) in 3 ml of cRPMI or with cRPMI alone for 1 hr at 37° C. Cells were washed with PBS, then allowed to produce virus in 3 ml of cRPMI at 37° C. for 2 hr. Viral supernatants were clarified through a 0.45 Tm filter, and […] of MAb (10 mg/ml) in 5% NGS-PBS, and the mixture was incubated for 1 hr on ice. Pansorbin (SaC) (50 mg; Calbiochem; San Diego Calif.) was added to the solution and incubated for 20 min on ice. Complexes were washed sequentially with 10X and 1X PBS. Precipitated virus was lysed with […] of 1% Triton X-100 in cRPMI. Lysates were diluted, and p24 was quantitated by standard p24 ELISA.
The effects of 2-OH-βCD, a cellular cholesterol efflux inducing molecule, on the incorporation of host molecules into virions also was examined. By removing cholesterol, 2-OH-βCD is believed to partially perturb organized lipid rafts, resulting in dispersal of their components (Ilangumaran and Hoessli, Biochem. J. 335:433-440, 1998).

[5] = infected Jurkat cells treated with 20 mM for 1 hr at 37° C, P<0.05

2-hydroxypropyl-β-cyclodextrin [2-OH-βCD]
Reduction of HIV infection of LuSIV cells [1]: ~100% | Reduction of virus binding, by mean channel fluorescence of the anti-class II MHC mAb ([2]; Jurkat cells treated with 20 mM): 70% | MHM5 (anti-class I MHC) % Pos ([2]; treated Jurkat cells, HIVRF): 100% | MHM5 (anti-class I MHC) MCF ([2]; treated Jurkat cells, HIVRF): 167.8 MCF | MHM33 (anti-class II MHC) % Pos ([2]; treated Jurkat cells, HIVRF): 26.0% | MHM33 (anti-class II MHC) MCF ([2]; treated Jurkat cells, HIVRF): 2.4 MCF | IgG1 % Pos ([2]; treated Jurkat cells, no virus): 3.4% | IgG1 MCF ([2]; treated Jurkat cells, no virus): 0.7 MCF | MHM5 (anti-class I MHC) % Pos ([2]; treated Jurkat cells, no virus): 100% | MHM5 (anti-class I MHC) MCF ([2]; treated Jurkat cells, no virus): 165 MCF | MHM33 (anti-class II MHC) % Pos ([2]; treated Jurkat cells, no virus): 3.3% | MHM33 (anti-class II MHC) MCF ([2]; treated Jurkat cells, no virus): 0.7 MCF | Infectivity of virions from cholesterol-depleted cells [3]: significantly less infectious | Production of HIV-1 virions from cholesterol-depleted cells [3]: dramatically decreased | Overall cellular release of p24 ([4]; infected Jurkat cells after treatment): increased | CD45 capture of HIV-1 ([4]; infected Jurkat cells treated with 20 mM for 1 hr at 37° C): remained mostly unaffected | Capture of HIV-1 by MAb against CD59, percentage of total p24 [4, 5]: decreased substantially | Capture of HIV-1 by MAb against gp41, percentage of total p24 [4, 5]: decreased substantially | Decrease in capture of HIV-1 through Thy-1 ([4]; infected Jurkat cells treated with 20 mM for 1 hr at 37° C, P=0.08): not statistically significant

Reference: patent US7589080B2, “β-cyclodextrin compositions, and use to prevent transmission of sexually transmitted diseases” (priority 2000, dated 2009)
